Structures are written as SMILES. Where “and” joins values, the source holds several entries; their conditions need not be identical. Equal values may be shown once. Read-outs that look alike come from different tables or passages of the source.

We go through 3 compounds from PMC7615676, “Short-course combination treatment for experimental chronic Chagas disease” (Science translational medicine, 2023).

Data set [1] concerns the target T1, Human complex III (bc1), mitochondria from THP-1 (Homo sapiens, UniProt P00156).
T1 construct: Preparation of mitochondria from a human cell line (THP-1); endogenous in cells; host or cells: THP-1 (human) mitochondria
Nature of the data set: human complex III inhibition assay. It is filed as biochemical. On the procedure: Preparation of mitochondria from a human cell line (THP-1) was performed following published procedure ([72]). The protocol for the assay has been described in ([73]).

For data set [2], the system named is chronic T. cruzi infection (CL Brener) in BALB/c mice. More on the design: method as in PMID 27748443. The settings on record: cited from earlier work.
On the set-up of data set [3]: method as in PMID 21073628, PMID 20932171. The settings on record: patients; cited from earlier work.
The mark [4] stands for this setting: 200.00 µM, read-out: Average % inhibition of human bc1.

In general, EC50 refers to the midpoint of the concentration-response curve. Low values mean an effect from little substance, high ones a need for much substance. One may read the inhibition as the relative decrease from the control value, in per cent. Take `COc1ccc(-c2c(C)[nH]c3nc(N)nc(C)c23)c(OC)c1` [Compound 4, 5-(2,4-Dimethoxyphenyl)-4,6-dimethyl-7H-pyrrolo[2,3-d]pyrimidin-2-amine]: the concentration giving a half-maximal response (EC50) in data set [1] was > 200 µM. Further, in data set [1] (0.09 µM), the “% inhibition of human bc1, individual replicates” value (shortened to “% inhibition of human bc1”) was -12.21% and 6.38%; the inhibition at 0.09 µM is -2.92%. Also, in data set [1] (0.27 µM), the “% inhibition of human bc1” value was -0.73% and 8.86% and -14.09%; the inhibition at 0.27 µM was -1.99%. Further, in data set [1] (0.82 µM), the “% inhibition of human bc1” value was -0.42% and -1.05% and -3.03%; the inhibition at 0.82 µM was -1.5%. Moreover, in data set [1] (2.47 µM), the “% inhibition of human bc1” value was -7.80% and 0.71% and -1.55%; the inhibition at 2.47 µM is -2.88%. Also, in data set [1] (7.41 µM), the “% inhibition of human bc1” value was 20.02% and -3.97% and 5.85%; the inhibition at 7.41 µM is 7.3%. Also, in data set [1] (22.22 µM), the “% inhibition of human bc1” value is 11.11% and -1.32% and 9.84%; the inhibition at 22.22 µM turned out to be 6.55%. In data set [1] (66.67 µM), the “% inhibition of human bc1” value is 21.01% and 18.54% and -10.78%; the inhibition at 66.67 µM stood at 9.59%. Further, the “% inhibition of human bc1” value in data set [1] (200.00 µM) is 5.17% and 18.62% and -0.60%. Moreover, the inhibition at 200 µM in data set [1] (setting [4]) turned out to be 7.73%.
For `COc1cc(Cl)ccc1-c1c(C)[nH]c2nc(N)nc(C)c12` [Compound 3, 5-(4-Chloro-2-methoxyphenyl)-4,6-dimethyl-7H-pyrrolo[2,3-d]pyrimidin-2-amine], the “% inhibition of human bc1” value in data set [1] (0.09 µM) is -102.79% and -0.39% and 23.45% and -1.32% and -77.48% and 6.58%; in data set [1] (0.27 µM), -31.71% and -5.91% and 16.57% and 7.05% and 0.38% and 2.42%; in data set [1] (0.82 µM) it was -55.04% and -6.88% and 19.61% and 6.94% and 1.93% and 10.74%; in data set [1] (2.47 µM), -19.11% and -13.68% and 7.11% and 15.66% and -8.81% and 14.23%; in data set [1] (7.41 µM), -1.93% and 0.10% and 21.95% and 17.90% and 0.73% and -3.46%; in data set [1] (22.22 µM), -14.09% and -16.93% and 21.42% and 11.31% and -5.13%. In addition, the “% inhibition of human bc1” value in data set [1] (66.67 µM) was -178.30% and 13.25% and 22.71% and -32.39% and -2.98% and 16.87%; in data set [1] (200.00 µM) it was 22.88% and 27.88% and 27.19% and -35.32% and 30.21% and 59.63%. Besides, the inhibition at 0.09 µM in data set [1] (0.09 µM) was -25.3%. Moreover, in data set [1] (0.27 µM), the inhibition at 0.27 µM was -1.87%. The inhibition at 0.82 µM in data set [1] (0.82 µM) was -3.78%. Besides, the inhibition at 2.47 µM in data set [1] (2.47 µM) was -0.76%. Moreover, the inhibition at 7.41 µM in data set [1] (7.41 µM) was found to be 5.88%. Also, in data set [1] (22.22 µM), the inhibition at 22.22 µM is -0.68%. In data set [1] (66.67 µM), the inhibition at 66.67 µM was -26.8%. Further, the inhibition at 200 µM in data set [1] (setting [4]) was found to be 22.1%; in data set [1] (200 μM, read-out: Human complex III inhibition at 200μM) it was 20%. In data set [1] (concentrations up to and including 66.7 μM), the “inhibition of human complex III” value is “did not inhibit”.
On to `O=C(Cn1ccnc1[N+](=O)[O-])NCc1ccccc1` [Benznidazole, reference compound], for which, in data set [2], the “minimum efficacious dose in a five-day chronic study” value was 100 mg/kg. The “discontinuation of treatment prior to completion due to adverse side-effects” value in data set [3] is on record as “up to 29%”.
